The numbers were not newly measured in patent US20040097599A1, “Antibacterial and antifungal compositions based on branched C-11 alcohols” (priority 2001, published 2004), which cites them from elsewhere.

Converted amounts (≈) assume the structure as drawn.

The subject of the data set is Streptococcus mutans. The following applies: towards Streptococcus mutans; J. Agric. Food Chem. 1993, 41, 2447-2450.

As to `CCCCCCCCCCCCO` [1-dodecanol], the “MIC (Minimum Inhibitory Concentration)” value is 6.25 µg/mL (≈ 33.5 µM).
`CCCCCCCCCCCCCO` [1-tridecanol]: the “MIC (Minimum Inhibitory Concentration)” value was 6.25 µg/mL (≈ 31.2 µM).
